{"source": "ChEMBL document CHEMBL3507680", "about": "“University of Dundee, Gates Library screen for HepG2 cell viability”", "data": [{"experiment": "Human HepG2 cell viability assay in 384 well format", "type": "toxicity, cell-based", "design": "dose 125 nL, time 70.5 hour; concentration not given beside the values", "details": "HepG2 cells, read-out: Inhibition", "units": {"cytotoxicity at 70.5 h": "%"}, "values": [{"smiles": "c1cnn(CCC2CCN(Cc3ccc4[nH]ccc4c3)CC2)c1", "cytotoxicity at 70.5 h": 0.43}, {"smiles": "Cc1nc(O)cc(CN2CCC=C(CN(C)C(=O)c3ccco3)C2)n1", "cytotoxicity at 70.5 h": -14.2}, {"smiles": "CCCS(=O)(=O)c1ncc(CN2CCC(C)CC2)n1CC1CCCO1", "note": "(stereo not given)", "cytotoxicity at 70.5 h": -2.16}, {"smiles": "CCCn1ncc(C(=O)NCc2n[nH]c3c2CCCCC3)c1C", "cytotoxicity at 70.5 h": -13.2}, {"smiles": "CCC1c2cccn2CCN1C(=O)c1cc(OC)nc(OC)n1", "note": "(stereo not given)", "cytotoxicity at 70.5 h": 44.1}, {"smiles": "CNC(=O)C(C)NC(=O)c1cc(COc2ccc(OC)cc2Cl)[nH]n1", "note": "(stereo not given)", "cytotoxicity at 70.5 h": -2.95}, {"smiles": "CCN1CCN(C(=O)CCC2CCN(C(C)CSC)CC2)CC1", "note": "(stereo not given)", "cytotoxicity at 70.5 h": 3.5}, {"smiles": "CNc1cc(-c2ccccc2CN)c2cc[nH]c2n1", "cytotoxicity at 70.5 h": 3.36}, {"smiles": "CN(C)C(=O)c1cccnc1N1CCOC(c2ccc(Cl)cc2)C1", "note": "(stereo not given)", "cytotoxicity at 70.5 h": -12.8}, {"smiles": "CN(C)C(=O)NCc1cc2n(n1)CCCN(CC1CCCNC1)C2", "note": "(stereo not given)", "cytotoxicity at 70.5 h": 29.9}, {"smiles": "Cc1cc(NCCc2c(C)n[nH]c2C)nc(-c2cccnc2)n1", "cytotoxicity at 70.5 h": 20.8}, {"smiles": "Cc1nn(CC(=O)NCc2cc3n(n2)CCCN(CC(C)C)C3)cc1Cl", "cytotoxicity at 70.5 h": 9.44}, {"smiles": "O=C(CCn1cnnn1)N1CCCC(CO)(CCCc2ccccc2)C1", "note": "(stereo not given)", "cytotoxicity at 70.5 h": -1.63}, {"smiles": "O=C(NCc1nncn1C1CCCCC1)C1COc2ccccc2O1", "note": "(stereo not given)", "cytotoxicity at 70.5 h": -7.82}, {"smiles": "Nc1nnc(CCNC(=O)c2cccc(C3CCCNC3)c2)s1", "note": "(stereo not given)", "cytotoxicity at 70.5 h": -10.1}, {"smiles": "Cc1cnccc1NCCNC(=O)[C@H]1CNC[C@H](C(=O)N2CCCC2)C1", "cytotoxicity at 70.5 h": -4.18}, {"smiles": "COC(=O)c1cc(OCC2CCC2)cc(C(=O)N[C@H](C)C(N)=O)c1", "cytotoxicity at 70.5 h": -10.2}, {"smiles": "CC(=O)N1CCc2[nH]cnc2C1C1=CCCN(CCn2cccc2)C1", "note": "(stereo not given)", "cytotoxicity at 70.5 h": -4.34}, {"smiles": "Cc1cc(C(=O)N[C@H]2Cc3ccccc3[C@@H]2N)c(=O)[nH]c1C", "cytotoxicity at 70.5 h": 1.3}, {"smiles": "CCOc1cc(CNCc2ncc[nH]2)c(Cl)cc1OC(C)C", "cytotoxicity at 70.5 h": 20.6}, {"smiles": "CCCc1noc(C2CC(=O)N(C(C)(C)C)C2)n1", "note": "(stereo not given)", "cytotoxicity at 70.5 h": -16}, {"smiles": "O=C(N1CCC2(CC1)[C@H](O)C[C@@H]2O)C1(c2ccccc2F)CC1", "cytotoxicity at 70.5 h": 1.59}, {"smiles": "CN(C)C(C(=O)NCC1(N(C)C)CCOCC1)c1ccccc1F", "note": "(stereo not given)", "cytotoxicity at 70.5 h": -7.91}, {"smiles": "Cc1ccc(C2(CN(C)Cc3snnc3C)CCNCC2)nc1", "cytotoxicity at 70.5 h": -1.57}, {"smiles": "O=C1CC(NCc2ccc(OC(F)F)cc2)CN1Cc1cccc(F)c1", "note": "(stereo not given)", "cytotoxicity at 70.5 h": -4.49}, {"smiles": "Cc1ccc(CN(C)C(=O)C(C)n2ccnc2C(C)C)o1", "note": "(stereo not given)", "cytotoxicity at 70.5 h": -18.9}, {"smiles": "CN(Cc1cc2n(n1)CCNC2)Cc1noc(C2CCC2)n1", "cytotoxicity at 70.5 h": -3.21}, {"smiles": "COc1ccc(Cl)cc1C(=O)N1C[C@H](C(C)C)[C@@H](N)C1", "cytotoxicity at 70.5 h": 3.26}, {"smiles": "CCc1nc(C)c(C(=O)N2CCNCC2C(=O)Nc2ccc(C)nc2)o1", "note": "(stereo not given)", "cytotoxicity at 70.5 h": -3.52}, {"smiles": "NC(=O)c1ccc(CN2C(=O)C3(CCNCC3)Nc3ccccc32)cc1", "cytotoxicity at 70.5 h": 26.6}, {"smiles": "CCc1nc2ccccc2n1C(CC)C(=O)N(C)Cc1noc(C)n1", "note": "(stereo not given)", "cytotoxicity at 70.5 h": -19.8}, {"smiles": "CCCOC1CCCN(Cc2nc(-c3cccs3)oc2C)C1", "note": "(stereo not given)", "cytotoxicity at 70.5 h": -1.07}, {"smiles": "CCCc1cnc(C)nc1N1CCC(Cn2cc(C(C)O)nn2)CC1", "note": "(stereo not given)", "cytotoxicity at 70.5 h": -13.9}, {"smiles": "CC(C)c1nccc(CN2CCCC(O)(CN(C)C)C2)n1", "note": "(stereo not given)", "cytotoxicity at 70.5 h": 15}, {"smiles": "Cc1nnsc1CN1CCCC1c1nc(-c2ccccc2)no1", "note": "(stereo not given)", "cytotoxicity at 70.5 h": -3.77}, {"smiles": "COCCC(=O)NCC1COc2cc(OC)ccc2C1", "note": "(stereo not given)", "cytotoxicity at 70.5 h": -12.7}, {"smiles": "Cc1ncsc1CCC(=O)NC1CCN(Cc2cccs2)CC1", "cytotoxicity at 70.5 h": -11.5}, {"smiles": "CC(C)c1nc(CN(C)C(=O)c2ccccc2C2CCNC2)cs1", "note": "(stereo not given)", "cytotoxicity at 70.5 h": -8.26}, {"smiles": "CC(CO)(CO)NC(=O)C1CCC(=O)N(Cc2ccc(Cl)cc2)C1", "note": "(stereo not given)", "cytotoxicity at 70.5 h": -2.86}, {"smiles": "CCc1nc2c(N3CCC4(CC3)CC(=O)N(CC(C)C)C4)ncnc2o1", "cytotoxicity at 70.5 h": 1.84}, {"smiles": "Cc1nc2c(c(NCc3cc4ccccc4s3)n1)CCNCC2", "cytotoxicity at 70.5 h": -5.12}, {"smiles": "COCCc1noc(CN(C)c2nc(C)nc(C)c2C)n1", "cytotoxicity at 70.5 h": 25.3}, {"smiles": "O=C(CCc1nc(Cl)n[nH]1)N1CCC2(CCCN(CC3CCC3)C2=O)C1", "note": "(stereo not given)", "cytotoxicity at 70.5 h": -7.56}, {"smiles": "Cc1cc(NCCNc2cccnc2)nc(-c2ccccc2O)n1", "cytotoxicity at 70.5 h": 3.73}, {"smiles": "CN1CC2(CCCN(c3cc(N4CCCCC4)ncn3)C2)OC1=O", "note": "(stereo not given)", "cytotoxicity at 70.5 h": 12.1}, {"smiles": "Cc1cc(=O)c2ccccc2n1CC1CCN(C(C)C)C1", "note": "(stereo not given)", "cytotoxicity at 70.5 h": -1.13}, {"smiles": "CN(Cc1ccon1)C1CCN(c2cccc(-c3cscn3)c2)CC1", "cytotoxicity at 70.5 h": -4.4}, {"smiles": "O=c1[nH]c(-c2ccccc2)nc2c1CCN(S(=O)(=O)N1CCCC1)C2", "cytotoxicity at 70.5 h": -7.26}, {"smiles": "Cc1ncc(C)c(N2CCC(CCc3ccccc3)(C(=O)O)CC2)n1", "cytotoxicity at 70.5 h": -10.1}, {"smiles": "CCN1CCC(N2C[C@@H](C(=O)O)[C@H](c3cccc(OC)c3)C2)CC1", "cytotoxicity at 70.5 h": -0.816}, {"smiles": "Cn1c(Cn2ccnc2)nnc1C1CCCN(CC(C)(C)C)C1", "note": "(stereo not given)", "cytotoxicity at 70.5 h": -8.29}, {"smiles": "CNC(=O)[C@@H]1C[C@@H](N)CN1C(=O)CCSCc1ccc(F)cc1", "cytotoxicity at 70.5 h": 7.46}, {"smiles": "COCC(=O)N1CCC2(CC1)CC(=O)N(Cc1ccc(Cl)cc1)C2", "cytotoxicity at 70.5 h": -6.31}, {"smiles": "COCCc1noc(CN(C)C(=O)C2COc3ccccc3C2)n1", "note": "(stereo not given)", "cytotoxicity at 70.5 h": -5.1}, {"smiles": "Cc1cc(CN2CCC(CNC(=O)c3ccc(C#N)cc3)C2)[nH]n1", "note": "(stereo not given)", "cytotoxicity at 70.5 h": -0.514}, {"smiles": "CC(C)S(=O)(=O)N1CCC(Cc2cccc(C(=O)O)c2)C1", "note": "(stereo not given)", "cytotoxicity at 70.5 h": -4.82}, {"smiles": "C[C@H](N)C(=O)N1CCC(c2[nH]ncc2-c2ccccc2)CC1", "cytotoxicity at 70.5 h": -4.88}, {"smiles": "O=C(c1cccc(S(=O)(=O)NCCc2ccccn2)c1)N1CCOCC1", "cytotoxicity at 70.5 h": -2.52}, {"smiles": "COc1ccc(CN2CCC3(CCCN(C)C3=O)C2)c(Cl)c1OC", "note": "(stereo not given)", "cytotoxicity at 70.5 h": 0.156}, {"smiles": "COCCN(Cc1sccc1C)C(=O)C1CCCN(C(N)=O)C1", "note": "(stereo not given)", "cytotoxicity at 70.5 h": 9.09}, {"smiles": "O=C1CCCN1CCc1noc(-c2ccc3[nH]cnc3c2)n1", "cytotoxicity at 70.5 h": -8.29}, {"smiles": "C/C(=C\\c1ccco1)CN(C)C(C)c1ccccn1", "note": "(stereo not given)", "cytotoxicity at 70.5 h": 16.1}, {"smiles": "Cc1cccc(OC2CN(C(=O)C3CC(=O)N(C(C)(C)C)C3)C2)c1", "note": "(stereo not given)", "cytotoxicity at 70.5 h": -2.82}, {"smiles": "Cc1cc(C)n(CC(C)NCc2cnc3c(C)cccn23)n1", "note": "(stereo not given)", "cytotoxicity at 70.5 h": -2.32}, {"smiles": "c1cc(-c2cn[nH]c2)ncc1CN1CCCCC1", "cytotoxicity at 70.5 h": -6.79}, {"smiles": "O=C(NCCc1nc(-c2cccnc2)no1)c1ccc(C2CCCO2)s1", "note": "(stereo not given)", "cytotoxicity at 70.5 h": 6.34}, {"smiles": "COCCN1C[C@H]2CC[C@@H]1CN(C(=O)CCc1n[nH]c(C)c1C)C2", "cytotoxicity at 70.5 h": 6.62}, {"smiles": "OC(CNc1ccncn1)CN1CCCCCC1", "note": "(stereo not given)", "cytotoxicity at 70.5 h": -7.06}, {"smiles": "O=C1NCCN(Cc2ccccc2)C1CC(=O)N1CCc2n[nH]cc2C1", "note": "(stereo not given)", "cytotoxicity at 70.5 h": 19.3}, {"smiles": "COCC(NC1CCN(CC(C)C)CC1)c1ccnn1C", "note": "(stereo not given)", "cytotoxicity at 70.5 h": -6.73}, {"smiles": "CN(Cc1ccc(-n2cccn2)cc1)c1nc(N)nc2c1CCNCC2", "cytotoxicity at 70.5 h": 12.6}, {"smiles": "O[C@@]1(CNCCCOc2cccnc2)CCCN2CCCC[C@@H]21", "cytotoxicity at 70.5 h": 5.47}, {"smiles": "Cc1cc(N2CCOC(C(F)(F)F)C2)nc(-c2ccccc2O)n1", "note": "(stereo not given)", "cytotoxicity at 70.5 h": -6.3}, {"smiles": "Cc1cc2nc(C(C)C)cc(N3CCC(Oc4ncccn4)CC3)n2n1", "cytotoxicity at 70.5 h": 48.7}, {"smiles": "CSc1ccc(C(=O)N2C[C@H]3CC[C@@H]2CN(Cc2ccccc2)C3)cc1", "cytotoxicity at 70.5 h": -0.304}, {"smiles": "COCCCN1C(=O)CC[C@H]2CN(c3ccnc4ccccc34)CC[C@H]21", "cytotoxicity at 70.5 h": -5.09}, {"smiles": "CC(C)Oc1ccc(CN2CCCC(N3CCOCC3)C2)cc1CO", "note": "(stereo not given)", "cytotoxicity at 70.5 h": -5.76}, {"smiles": "N#Cc1cccc(N2CCC(CO)(CCOc3ccccc3)CC2)n1", "cytotoxicity at 70.5 h": -4.29}, {"smiles": "Fc1ccc2[nH]c(C3CCCN3CCCn3cccn3)nc2c1", "note": "(stereo not given)", "cytotoxicity at 70.5 h": -6.03}, {"smiles": "Cc1nc(N2CCCOC(Cn3cccn3)C2)c2sccc2n1", "note": "(stereo not given)", "cytotoxicity at 70.5 h": -2.92}]}]}
